Molecular target: T1, ΔF508-CFTR (Homo sapiens, UniProt P13569, DEL508-508)
T1 construct: expressed in transfected cells; host or cells: Fisher rat […] (FRT) cells expressing ΔF508-CFTR (Ussing chamber); NIH3T3 cells stably expressing ΔF508-CFTR (whole-cell recording)
Experiment: Assays for detecting and measuring ΔF508-CFTR potentiation properties of compounds (membrane potential optical / Ussing chamber / whole-cell recording)
Format: cell-based
Settings: for Emax: relative efficacy, efficacy of putative ΔF508-CFTR potentiators compared to known potentiator genistein; for EC50: ΔF508-CFTR potentiation, the specific assay format behind Table 3 is not stated
Excerpt: Assays for Detecting and Measuring ΔF508-CFTR Potentiation Properties of Compounds
Membrane Potential Optical Methods for Assaying ΔF508-CFTR Modulation Properties of Compounds
The optical membrane potential assay utilized voltage-sensitive FRET sensors described by Gonzalez and Tsien (See Gonzalez, J. E. and R. Y. Tsien (1995) “Voltage sensing by fluorescence resonance energy transfer in single cells” Biophys J 69(4): 1272-80, and Gonzalez, J. E. and R. Y. Tsien (1997) “Improved indicators of cell membrane potential that use fluorescence resonance energy transfer” Chem Biol 4(4): 269-77) in combination with instrumentation for measuring fluorescence changes such as the Voltage/Ion Probe Reader (VIPR) (See Gonzalez, J. E., K. Oades, et al. (1999) “Cell-based assays and instrumentation for screening ion-channel targets” Drug Discov Today 4(9): 431-439).
These voltage sensitive assays are based on the change in fluorescence resonant energy transfer (FRET) between the membrane-soluble, voltage-sensitive dye, DiSBAC2(3), and a fluorescent phospholipid, CC2-DMPE, which is attached to the outer leaflet of the plasma membrane and acts as a FRET donor. Changes in membrane potential (Vm) cause the negatively charged DiSBAC2(3) to redistribute across the plasma membrane and the amount of energy transfer from CC2-DMPE changes accordingly. The changes in fluorescence emission were monitored using VIPR™ II, which is an integrated liquid handler and fluorescent detector designed to conduct cell-based screens in 96- or 384-well microtiter plates.
Identification of Potentiator Compounds
Typical protocol utilized a basolateral to apical membrane Cl^− concentration gradient. To set up this gradient, normal ringers was used on the basolateral membrane and was permeabilized with nystatin (360 μg/m), whereas apical NaCl was replaced by equimolar sodium gluconate (titrated to pH 7.4 with NaOH) to give a large Cl^− concentration gradient across the epithelium. All experiments were performed 30 min after nystatin permeabilization. Forskolin (10 μM) and all test compounds were added to both sides of the cell culture inserts. The efficacy of the putative ΔF508-CFTR potentiators was compared to that of the known potentiator, genistein.
Solutions • Basolateral solution (in mM): NaCl (135), CaCl2 (1.2), MgCl2 (1.2), K2HPO4 (2.4), KHPO4 (0.6), N-2-hydroxyethylpiperazine-N′-2-ethanesulfonic acid (HEPES) (10), and dextrose (10). The solution was titrated to pH 7.4 with NaOH. • Apical solution (in mM): Same as basolateral solution with NaCl replaced with Na Gluconate (135).
Fisher rat […] (FRT) cells expressing ΔF508-CFTR (FRTΔ^F508-CFTR) were used for Ussing chamber experiments for the putative ΔF508-CFTR modulators identified from our optical assays. The cells were cultured on Costar Snapwell cell culture inserts and cultured for five days at 37° C. and 5% CO2 in Coon's modified Ham's F-12 medium supplemented with 5% fetal calf serum, 100 U/ml penicillin, and 100 μg/m streptomycin. Prior to use for characterizing the potentiator activity of compounds, the cells were incubated at 27° C. for 16-48 hrs to correct for the ΔF508-CFTR. To determine the activity of corrections compounds, the cells were incubated at 27° C. or 37° C. with and without the compounds for 24 hours.
The macroscopic ΔF508-CFTR current (IΔF508) in temperature- and test compound-corrected NIH3T3 cells stably expressing ΔF508-CFTR were monitored using the perforated-patch, whole-cell recording. Briefly, voltage-clamp recordings of IΔF508 were performed at room temperature using an Axopatch 200B patch-clamp amplifier (Axon Instruments Inc., Foster City, Calif.). All recordings were acquired at a sampling frequency of 10 kHz and low-pass filtered at 1 kHz. […] Under these recording conditions, the calculated reversal potential for Cl^− (ECl) at room temperature was −28 mV. […]

T1 sequence (P13569 with tags, fused parts or gaps DEL508-508): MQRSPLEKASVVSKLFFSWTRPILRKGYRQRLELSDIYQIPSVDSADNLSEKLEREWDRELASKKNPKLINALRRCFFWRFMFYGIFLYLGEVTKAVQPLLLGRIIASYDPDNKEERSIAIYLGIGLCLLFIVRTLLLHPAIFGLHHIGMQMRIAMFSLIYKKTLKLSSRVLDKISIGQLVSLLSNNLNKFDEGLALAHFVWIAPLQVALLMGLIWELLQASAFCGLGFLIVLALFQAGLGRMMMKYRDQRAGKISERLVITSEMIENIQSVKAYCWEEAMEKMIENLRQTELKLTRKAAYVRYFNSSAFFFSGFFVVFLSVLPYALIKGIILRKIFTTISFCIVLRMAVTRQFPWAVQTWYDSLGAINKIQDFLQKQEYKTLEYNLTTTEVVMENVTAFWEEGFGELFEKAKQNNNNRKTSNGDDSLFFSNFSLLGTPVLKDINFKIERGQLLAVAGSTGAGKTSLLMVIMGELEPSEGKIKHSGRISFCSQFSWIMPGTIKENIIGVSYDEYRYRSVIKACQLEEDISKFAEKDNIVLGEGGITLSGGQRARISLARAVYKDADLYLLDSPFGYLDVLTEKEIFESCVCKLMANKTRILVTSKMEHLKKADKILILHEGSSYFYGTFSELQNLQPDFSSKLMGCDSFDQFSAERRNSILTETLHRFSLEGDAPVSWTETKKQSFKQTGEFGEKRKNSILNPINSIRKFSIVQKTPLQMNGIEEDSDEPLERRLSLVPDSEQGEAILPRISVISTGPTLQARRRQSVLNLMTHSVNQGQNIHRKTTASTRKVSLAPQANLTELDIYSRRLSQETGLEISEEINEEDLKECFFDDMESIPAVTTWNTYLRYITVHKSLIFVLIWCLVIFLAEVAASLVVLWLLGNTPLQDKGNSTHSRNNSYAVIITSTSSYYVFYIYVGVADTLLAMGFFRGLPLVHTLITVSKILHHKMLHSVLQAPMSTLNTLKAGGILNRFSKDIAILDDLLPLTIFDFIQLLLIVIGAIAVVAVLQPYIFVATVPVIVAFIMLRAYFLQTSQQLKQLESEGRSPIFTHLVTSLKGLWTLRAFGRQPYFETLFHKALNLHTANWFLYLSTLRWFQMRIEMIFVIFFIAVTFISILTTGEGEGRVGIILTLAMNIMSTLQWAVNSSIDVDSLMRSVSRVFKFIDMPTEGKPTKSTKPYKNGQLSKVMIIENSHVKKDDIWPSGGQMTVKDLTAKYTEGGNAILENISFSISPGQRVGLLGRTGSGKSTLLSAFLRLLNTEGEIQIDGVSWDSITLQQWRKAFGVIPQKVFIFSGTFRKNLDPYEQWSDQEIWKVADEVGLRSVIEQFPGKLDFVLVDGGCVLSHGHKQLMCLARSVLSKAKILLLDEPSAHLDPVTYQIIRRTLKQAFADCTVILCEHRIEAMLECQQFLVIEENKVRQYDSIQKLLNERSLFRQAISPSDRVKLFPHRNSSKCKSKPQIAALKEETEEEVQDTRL

Emax [%] | EC50 [µM] | Structure (SMILES)
25 to 100 | < 10 | Cc1nsc2[nH]cc(C(=O)Nc3cc(O)c(C4CCCC4)cc3C(F)(F)F)c(=O)c12 [Compound 12]
25 to 100 | < 10 | Cc1nsc2[nH]cc(C(=O)Nc3ccc(N4CCC(C)(C)C4)cc3C(F)(F)F)c(=O)c12 [Compound 8]
25 to 100 | < 10 | Cc1nsc2[nH]cc(C(=O)Nc3ccc(N4CC[C@H](F)C4)cc3C(F)(F)F)c(=O)c12 [Compound 10]
25 to 100 | < 10 | Cc1nsc2[nH]cc(C(=O)Nc3cc(O)c(C4CCCC4)cc3C#N)c(=O)c12 [Compound 15]
25 to 100 | < 10 | Cc1nsc2[nH]cc(C(=O)Nc3cc(O)c(C(C)(C)C)cc3C(C)(C)C)c(=O)c12 [Compound 3]
25 to 100 | < 10 | Cc1nsc2[nH]cc(C(=O)Nc3ccc(C(F)(F)F)c(O)c3)c(=O)c12 [Compound 6]
25 to 100 | < 10 | Cc1nsc2[nH]cc(C(=O)Nc3cc(O)c(C4(C)CCCCC4)cc3F)c(=O)c12 [Compound 5]
25 to 100 | < 10 | Cc1nsc2[nH]cc(C(=O)Nc3ccc4c(C(F)(F)F)c[nH]c4c3)c(=O)c12 [Compound 1]
25 to 100 | < 10 | Cc1nsc2[nH]cc(C(=O)Nc3cc4[nH]ccc4cc3C(C)(C)C)c(=O)c12 [Compound 14]
25 to 100 | < 10 | Cc1nsc2[nH]cc(C(=O)Nc3ccc4c(C(C)(C)C)c[nH]c4c3)c(=O)c12 [Compound 2, N-(3-tert-butyl-1H-indol-6-yl)-3-methyl-4-oxo-4,7-dihydroisothiazolo[5,4-b]-pyridine-5-carboxamide]
25 to 100 | < 10 | Cc1nsc2[nH]cc(C(=O)Nc3ccc(N4CCC(F)(F)C4)cc3C(F)(F)F)c(=O)c12 [Compound 7]
25 to 100 | < 10 | Cc1cc(C2CCCC2)c(O)cc1NC(=O)c1c[nH]c2snc(C)c2c1=O [Compound 16]
25 to 100 | < 10 | Cc1nsc2[nH]cc(C(=O)Nc3ccc(N4CCC[C@@H]4C)cc3C(F)(F)F)c(=O)c12 [Compound 4]
25 to 100 | < 10 | Cc1nsc2[nH]cc(C(=O)Nc3ccc(N4CC[C@@H](F)C4)cc3C(F)(F)F)c(=O)c12 [Compound 13]
25 to 100 | < 10 | Cc1nsc2[nH]cc(C(=O)Nc3cc4[nH]ccc4cc3C(F)(F)F)c(=O)c12 [Compound 9]
25 to 100 | < 10 | Cc1nsc2[nH]cc(C(=O)Nc3ccc(N4[C@H](C)CC[C@H]4C)cc3C(F)(F)F)c(=O)c12 [Compound 11]
